The values below come from publication PMC3460821, “SIRT1 Activators Suppress Inflammatory Responses through Promotion of p65 Deacetylation and Inhibition of NF-κB Activity” (PLoS ONE, 2012).

This assay relates to SIRT1. The assay is described as follows: cells. Details: species or system U2OS or HEK 293; AlphaScreen of acetylated K310-p65 in lysates of cells co-expressing p300 and HA-p65; reduction by SIRT1 activators. Particulars: reduction of cellular acetylated p65 (K310); read-out: Cellular p65 acetylation assay IC50. On the procedure:
Acetylated p65 protein in cell lysates was measured by an AlphaScreen format based assay (Bosse et al., Principles of AlphaScreen. PerkinElmer Application Note (2001)). A sandwich comprised of a biotinylated anti-HA antibody (Roche, 12158167001) bound to streptavidin coated donor beads (PerkinElmer, 6760617M) and an anti-acetylated K310-p65 antibody (Abcam, ab19870) interacting with protein A coated acceptor beads was assembled to detect light emission upon acetylated HA-p65 protein binding to the donor and acceptor beads. A similar AlphaScreen assay to measure total HA-tagged p65 protein was also developed by replacing the anti-acetylated K310-p65 antibody with an anti-p65 antibody (Santa Cruz, sc-109). The level of acetylated p65 protein was normalized against the total HA-tagged p65 protein measured in parallel for the same sample. We developed a high throughput cellular assay to examine the ability of compounds to promote SIRT1-mediated deacetylation of p65 protein in cells. This assay system uses BacMam virus transduction in U2OS or HEK 293 cells to co-express p300 HAT and an HA-tagged p65 NF-κB subunit to enable detection of acetylated p65. […] Similarly, pharmacological inhibition of SIRT1 by a specific SIRT1 inhibitor, EX-527 [46], increased the levels of acetylated p65 protein (Figure 3D). […] STACs that were identified from biochemical assays (File S1) were evaluated in the acetylated p65 cellular assay. […] The compounds were tested for the inhibition of histone acetyltransferases (HATs) since this could result in a reduction of acetylated p65 that could not be distinguished from an enhancement of deacetylation.

Each structure is given as a SMILES string.

Turning to `O=C(Nc1nccs1)c1cccc2[nH]c(-c3ccc4c(c3)OC(F)(F)O4)nc12` [SRTCZ1001], the IC50 is more than 25 µM.

`O=C(Nc1nccs1)c1cccc2[nH]c(-c3cccc(N4CCOCC4)c3)nc12` [SRTCX1002]: the IC50 came out at 0.84 µM.

Take `O=C(Nc1nccs1)c1cccc2[nH]c(-c3ccccc3OCCN3CCOCC3)nc12` [SRTCX1003]: the IC50 came to 1.42 µM.
